# Laboratory results from patent US12564638B2 (SHANGHAITECH UNIVERSITY, priority 2019, dated 2026).
# pIC50: −log10 of the molar value.
# System: HCC827 cells (EGFR Exon19 del, non-small cell lung cancer cells)
# Assay: Cell viability assay (WST/CCK8), HCC827 cells
# Format: cell-based
# Settings: Homo sapiens, HCC827, 72 h, Table 3, poziotinib-based compounds; HCC827 (Exon19 Del); 72 hours; WST (CCK8); read-out: IC50 (half inhibitory concentration)
# Text: The cell lines with abnormal EGFR expression used are as follows: • HCC827 cells (EGFR Exon19 del, non-small cell lung cancer cells); • PC9 cells (EGFR Exon 19 del, non-small cell lung cancer cells); • PC9BracA1 (EGFR Exon 19 del+T790M, non-small cell lung cancer cells) • H1975 (EGFR Exon T790M+L858R mutation, non-small cell lung cancer cell line) • BT474 cells (HER2 positive breast cancer cells)
# All of the half inhibitory concentrations (IC50) of these compounds of the present invention were determined with WST reagent from Fuyuan Biotec Company. The specific experiment procedures are as follows: Cancer cells were planted in 96-well-plate at the density of 3 000 cells per well with 100 μL RPMI1640 completed culture medium. In the next day, compounds with indicated concentrations were added to the cells, DMSO was used as the negative control and the EGFR TKIs were used to treat cells as the positive groups. After 72 hours drug treatment, cell viability was measured by using the WST reagent following the instructions.
# The cells were treated with the gradient concentration of these compounds (the maximum concentration: 10 μM; 3-fold dilution ratio, 10 concentration gradients) for 72 hours and then incubated with the WST (CCK8) reagent to determine the cell viability.
row,SMILES,pIC50
1,"COc1cc2ncnc(Nc3ccc(Cl)c(Cl)c3F)c2cc1OC1CCN(C(=O)CCCCCSc2cccc3c2C(=O)N(C2CCC(=O)NC2=O)C3=O)CC1 (centres unmarked) [SIAIS249018, 4-((6-(4-((4-((3,4-dichloro-2-fluorophenyl)amino)-7-methoxyquinazolin-6-yl)oxy)piperidin-1-yl)-6-oxohexyl)thio)-2-(2,6-dioxopiperidin-3-yl)isoindoline-1,3-dione]",7.88
2,"COc1cc2ncnc(Nc3ccc(Cl)c(Cl)c3F)c2cc1OC1CCN(C(=O)CCCCCCSc2cccc3c2C(=O)N(C2CCC(=O)NC2=O)C3=O)CC1 (centres unmarked) [SIAIS249019, 4-((7-(4-((4-((3,4-dichloro-2-fluorophenyl)amino)-7-methoxyquinazolin-6-yl)oxy)piperidin-1-yl)-7-oxoheptyl)thio)-2-(2,6-dioxopiperidin-3-yl)isoindoline-1,3-dione]",7.42
3,"COc1cc2ncnc(Nc3ccc(Cl)c(Cl)c3F)c2cc1OC1CCN(C(=O)CCC(=O)N[C@H](C(=O)N2C[C@H](O)C[C@H]2C(=O)NCc2ccc(-c3scnc3C)cc2)C(C)(C)C)CC1 [SIAIS249020, (2S,4R)-1-((S)-2-(4-(4-((4-((3,4-dichloro-2-fluorophenyl)amino)-7-methoxyquinazolin-6-yl)oxy)piperidin-1-yl)-4-oxobutanamido)-3,3-dimethylbutanoyl)-4-hydroxy-N-(4-(4-methylthiazol-5-yl)benzyl)pyrrolidine-2-carboxamide]",7.12

# Same assay, conditions: Homo sapiens, HCC827, 72 h, Table 4, gefitinib and sapitinib-based compounds; HCC827 (Exon19 Del); 72 hours; WST; read-out: IC50 (half inhibitory concentration)
row,SMILES,pIC50
1,"COc1cc2ncnc(Nc3ccc(F)c(Cl)c3)c2cc1OCCCN1CCNCC1 [Gefitinib derivative A (SIAIS184161), N-(3-chloro-4-fluorophenyl)-7-methoxy-6-(3-(piperazin-1-yl)propoxy)quinazolin-4-amine]",8.00
2,"COc1cc2ncnc(Nc3ccc(F)c(Cl)c3)c2cc1OC1CCN(CC(=O)O)CC1 [Gefitinib derivative C (SIAIS293033), 2-(4-((4-((3-chloro-4-fluorophenyl)amino)-7-methoxyquinazolin-6-yl)oxy)piperidin-1-yl)acetic acid]",6.24
3,"COc1cc2ncnc(Nc3ccc(F)c(Cl)c3)c2cc1OCCCN1CCN(C(=O)CSc2cccc3c2C(=O)N(C2CCC(=O)NC2=O)C3=O)CC1 (centres unmarked) [SIAIS184164, 4-((2-(4-(3-((4-((3-chloro-4-fluorophenyl)amino)-7-methoxyquinazolin-6-yl)oxy)propyl)piperazin-1-yl)-2-oxoethyl)thio)-2-(2,6-dioxopiperidin-3-yl)isoindoline-1,3-dione]",7.33
4,"COc1cc2ncnc(Nc3ccc(F)c(Cl)c3)c2cc1OCCCN1CCN(C(=O)CCCSc2cccc3c2C(=O)N(C2CCC(=O)NC2=O)C3=O)CC1 (centres unmarked) [SIAIS184165, 4-((4-(4-(3-((4-((3-chloro-4-fluorophenyl)amino)-7-methoxyquinazolin-6-yl)oxy)propyl)piperazin-1-yl)-4-oxobutyl)thio)-2-(2,6-dioxopiperidin-3-yl)isoindoline-1,3-dione]",7.24
5,"COc1cc2ncnc(Nc3ccc(F)c(Cl)c3)c2cc1OCCCN1CCN(C(=O)COCCOCCOCCOCCOCCSc2cccc3c2C(=O)N(C2CCC(=O)NC2=O)C3=O)CC1 (centres unmarked) [SIAIS184170, 4-((17-(4-(3-((4-((3-chloro-4-fluorophenyl)amino)-7-methoxyquinazolin-6-yl)oxy)propyl)piperazin-1-yl)-17-oxo-3,6,9,12,15-pentaoxaheptadecyl)thio)-2-(2,6-dioxopiperidin-3-yl)isoindoline-1,3-dione]",6.73
6,"COc1cc2ncnc(Nc3ccc(F)c(Cl)c3)c2cc1OCCCN1CCN(C(=O)CSc2cccc3c2CN(C2CCC(=O)NC2=O)C3=O)CC1 (centres unmarked) [SIAIS184184, 3-(4-((2-(4-(3-((4-((3-chloro-4-fluorophenyl)amino)-7-methoxyquinazolin-6-yl)oxy)propyl)piperazin-1-yl)-2-oxoethyl)thio)-1-oxoisoindolin-2-yl)piperidine-2,6-dione]",7.00
7,"COc1cc2ncnc(Nc3ccc(F)c(Cl)c3)c2cc1OCCCN1CCN(C(=O)CCCSc2cccc3c2CN(C2CCC(=O)NC2=O)C3=O)CC1 (centres unmarked) [SIAIS184185, 3-(4-((4-(4-(3-((4-((3-chloro-4-fluorophenyl)amino)-7-methoxyquinazolin-6-yl)oxy)propyl)piperazin-1-yl)-4-oxobutyl)thio)-1-oxoisoindolin-2-yl)piperidine-2,6-dione]",6.95
8,"COc1cc2ncnc(Nc3ccc(F)c(Cl)c3)c2cc1OCCCN1CCN(C(=O)CCCCCSc2cccc3c2CN(C2CCC(=O)NC2=O)C3=O)CC1 (centres unmarked) [SIAIS184186, 3-(4-((6-(4-(3-((4-((3-chloro-4-fluorophenyl)amino)-7-methoxyquinazolin-6-yl)oxy)propyl)piperazin-1-yl)-6-oxohexyl)thio)-1-oxoisoindolin-2-yl)piperidine-2,6-dione]",6.91

# Same assay, conditions: Homo sapiens, HCC827, 72 h, Table 5, afatinib-based compounds; HCC827 (Exon19 Del); 72 hours; WST; read-out: IC50 (half inhibitory concentration)
row,SMILES,pIC50
1,"O=C1CCC(N2C(=O)c3cccc(SCC(=O)Nc4cc5c(Nc6ccc(F)c(Cl)c6)ncnc5cc4O[C@H]4CCOC4)c3C2=O)C(=O)N1 (stereo partly drawn) [SIAIS184093, N-(4-((3-chloro-4-fluorophenyl)amino)-7-(((S)-tetrahydrofuran-3-yl)oxy)quinazolin-6-yl)-2-((2-(2,6-dioxopiperidin-3-yl)-1,3-dioxoisoindolin-4-yl)thio)acetamide]",7.06
2,"O=C1CCC(N2C(=O)c3cccc(SCCCC(=O)Nc4cc5c(Nc6ccc(F)c(Cl)c6)ncnc5cc4O[C@H]4CCOC4)c3C2=O)C(=O)N1 (stereo partly drawn) [SIAIS184094, N-(4-((3-chloro-4-fluorophenyl)amino)-7-(((S)-tetrahydrofuran-3-yl)oxy)quinazolin-6-yl)-4-((2-(2,6-dioxopiperidin-3-yl)-1,3-dioxoisoindolin-4-yl)thio)butanamide]",6.98
3,"O=C1CCC(N2C(=O)c3cccc(SCCCCCC(=O)Nc4cc5c(Nc6ccc(F)c(Cl)c6)ncnc5cc4O[C@H]4CCOC4)c3C2=O)C(=O)N1 (stereo partly drawn) [SIAIS184095, N-(4-((3-chloro-4-fluorophenyl)amino)-7-(((S)-tetrahydrofuran-3-yl)oxy)quinazolin-6-yl)-6-((2-(2,6-dioxopiperidin-3-yl)-1,3-dioxoisoindolin-4-yl)thio)hexanamide]",6.76
4,"O=C1CCC(N2C(=O)c3cccc(SCCOCC(=O)Nc4cc5c(Nc6ccc(F)c(Cl)c6)ncnc5cc4O[C@H]4CCOC4)c3C2=O)C(=O)N1 (stereo partly drawn) [SIAIS184152, N-(4-((3-chloro-4-fluorophenyl)amino)-7-(((S)-tetrahydrofuran-3-yl)oxy)quinazolin-6-yl)-2-(2-((2-(2,6-dioxopiperidin-3-yl)-1,3-dioxoisoindolin-4-yl)thio)ethoxy)acetamide]",6.88
5,"O=C1CCC(N2C(=O)c3cccc(SCCOCCOCC(=O)Nc4cc5c(Nc6ccc(F)c(Cl)c6)ncnc5cc4O[C@H]4CCOC4)c3C2=O)C(=O)N1 (stereo partly drawn) [SIAIS184153, N-(4-((3-chloro-4-fluorophenyl)amino)-7-(((S)-tetrahydrofuran-3-yl)oxy)quinazolin-6-yl)-2-(2-(2-((2-(2,6-dioxopiperidin-3-yl)-1,3-dioxoisoindolin-4-yl)thio)ethoxy)ethoxy)acetamide]",6.50
6,"O=C1CCC(N2C(=O)c3cccc(SCCOCCOCCOCC(=O)Nc4cc5c(Nc6ccc(F)c(Cl)c6)ncnc5cc4O[C@H]4CCOC4)c3C2=O)C(=O)N1 (stereo partly drawn) [SIAIS184154, N-(4-((3-chloro-4-fluorophenyl)amino)-7-(((S)-tetrahydrofuran-3-yl)oxy)quinazolin-6-yl)-2-(2-(2-(2-((2-(2,6-dioxopiperidin-3-yl)-1,3-dioxoisoindolin-4-yl)thio)ethoxy)ethoxy)ethoxy)acetamide]",6.60
7,"O=C1CCC(N2C(=O)c3cccc(SCCOCCOCCOCCOCC(=O)Nc4cc5c(Nc6ccc(F)c(Cl)c6)ncnc5cc4O[C@H]4CCOC4)c3C2=O)C(=O)N1 (stereo partly drawn) [SIAIS184155, N-(4-((3-chloro-4-fluorophenyl)amino)-7-(((S)-tetrahydrofuran-3-yl)oxy)quinazolin-6-yl)-14-((2-(2,6-dioxopiperidin-3-yl)-1,3-dioxoisoindolin-4-yl)thio)-3,6,9,12-tetraoxatetradecan-1-amide]",7.10
8,"O=C1CCC(N2C(=O)c3cccc(SCCOCCOCCOCCOCCOCC(=O)Nc4cc5c(Nc6ccc(F)c(Cl)c6)ncnc5cc4O[C@H]4CCOC4)c3C2=O)C(=O)N1 (stereo partly drawn) [SIAIS184156, N-(4-((3-chloro-4-fluorophenyl)amino)-7-(((S)-tetrahydrofuran-3-yl)oxy)quinazolin-6-yl)-17-((2-(2,6-dioxopiperidin-3-yl)-1,3-dioxoisoindolin-4-yl)thio)-3,6,9,12,15-pentaoxaheptadecan-1-amide]",6.01

# Same assay, conditions: Homo sapiens, HCC827, 72 h, Table 6, canertinib-based compounds; HCC827 (Exon19 Del); 72 hours; WST; read-out: IC50 (half inhibitory concentration)
row,SMILES,pIC50
1,"C=CC(=O)Nc1cc2c(Nc3ccc(F)c(Cl)c3)ncnc2cc1OCCCN1CCNCC1 [Caneritinib derivative A (SIAIS293064), N-(4-((3-chloro-4-fluorophenyl)amino)-7-(3-(piperazin-1-yl)propoxy)quinazolin-6-yl)acrylamide]",8.35
